# Laboratory results published in patent US20240182910A1, “DRUG-REGULATABLE TRANSCRIPTION FACTORS” (Senti Biosciences, Inc., priority 2021, published 2024).
# Tests used:
# tTAPIT3E-KRAB = tested on: tTAPIT3E-KRAB; parameters: key to Response to inducer: T (transgene transcription): A, activation; DA, deactivation; DR, derepression; key to Response to inducer: TF (transcription factor): B, binding; D, dissociation; settings: TET-OFFPIP-ONE-ON; OtetO7-OPIR3-OETR8-PhCMVmin; cited from earlier work
# PIT (PIP-VP16) = tested on: PIT (PIP-VP16); parameters: key to Response to inducer: T (transgene transcription): A, activation; DA, deactivation; DR, derepression; key to Response to inducer: TF (transcription factor): B, binding; D, dissociation; settings: PIP-OFF; PPIR (OPIR-Phsp70 min); cited from earlier work
# SCAPIT3 = tested on: SCAPIT3; parameters: key to Response to inducer: T (transgene transcription): A, activation; DA, deactivation; DR, derepression; key to Response to inducer: TF (transcription factor): B, binding; D, dissociation; settings: QuoRexPIP-ON (NOT IF gate); OscbR8-OPIR3-PhCMVmin; cited from earlier work
# PIT3 (PIP-KRAB) = tested on: PIT3 (PIP-KRAB); parameters: key to Response to inducer: T (transgene transcription): A, activation; DA, deactivation; DR, derepression; key to Response to inducer: TF (transcription factor): B, binding; D, dissociation; settings: PIP-ON; PPIRON (PSV40-OPIR3); cited from earlier work
# cTA (CymR-VP16) = tested on: cTA (CymR-VP16); parameters: key to Response to inducer: T (transgene transcription): A, activation; DA, deactivation; DR, derepression; key to Response to inducer: TF (transcription factor): B, binding; D, dissociation; settings: Cumate - activator; PCR5 (OCuO6-PhCMVmin); cited from earlier work
# rcTA (rCymR-VP16) = tested on: rcTA (rCymR-VP16); parameters: key to Response to inducer: T (transgene transcription): A, activation; DA, deactivation; DR, derepression; key to Response to inducer: TF (transcription factor): B, binding; D, dissociation; settings: Cumate - reverse activator; PCR5 (OCuO6-PhCMVmin); cited from earlier work
# CymR = CymR (Pseudomonas putida, UniProt O33453); parameters: key to Response to inducer: T (transgene transcription): A, activation; DA, deactivation; DR, derepression; key to Response to inducer: TF (transcription factor): B, binding; D, dissociation; settings: Cumate - repressor; PCuO (PCMV5-OCuO); cited from earlier work
# CymR, sequence (O33453 whole entry): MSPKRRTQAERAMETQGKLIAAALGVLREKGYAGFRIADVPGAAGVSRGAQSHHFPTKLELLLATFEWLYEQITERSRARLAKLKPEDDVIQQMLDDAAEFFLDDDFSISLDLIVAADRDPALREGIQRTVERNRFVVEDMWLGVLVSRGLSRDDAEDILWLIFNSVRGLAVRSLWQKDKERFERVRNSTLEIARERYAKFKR
# VanA1 (VanR-VP16) = tested on: VanA1 (VanR-VP16); parameters: key to Response to inducer: T (transgene transcription): A, activation; DA, deactivation; DR, derepression; key to Response to inducer: TF (transcription factor): B, binding; D, dissociation; settings: VAC-OFF; P1VanO2 (OVanO2-PhCMVmin); cited from earlier work
# VanA4 (VanR-KRAB) = tested on: VanA4 (VanR-KRAB); parameters: key to Response to inducer: T (transgene transcription): A, activation; DA, deactivation; DR, derepression; key to Response to inducer: TF (transcription factor): B, binding; D, dissociation; settings: VAC-ON; PVanON8 (PhCMV-OVanO8); cited from earlier work
# BIT (BirA-VP16) = BIT (BirA-VP16) (Escherichia coli, UniProt P06709); parameters: key to Response to inducer: T (transgene transcription): A, activation; DA, deactivation; DR, derepression; key to Response to inducer: TF (transcription factor): B, binding; D, dissociation; settings: PBIT3 (OBirA3-PhCMVmin); cited from earlier work
# BIT (BirA-VP16), sequence (P06709 whole entry, added parts left off): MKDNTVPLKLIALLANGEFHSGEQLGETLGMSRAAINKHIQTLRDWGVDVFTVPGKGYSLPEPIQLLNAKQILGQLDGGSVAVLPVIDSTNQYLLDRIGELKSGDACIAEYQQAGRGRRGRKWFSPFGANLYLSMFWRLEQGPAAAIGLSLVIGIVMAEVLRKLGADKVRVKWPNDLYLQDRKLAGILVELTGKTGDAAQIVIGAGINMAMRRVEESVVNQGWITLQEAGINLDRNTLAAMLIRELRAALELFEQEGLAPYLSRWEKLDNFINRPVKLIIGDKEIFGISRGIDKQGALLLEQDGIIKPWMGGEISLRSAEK
# SCAE-KRAB = tested on: SCAE-KRAB; parameters: key to Response to inducer: T (transgene transcription): A, activation; DA, deactivation; DR, derepression; key to Response to inducer: TF (transcription factor): B, binding; D, dissociation; settings: QuoRexE-ON (NOT IF gate); OscbR-OETR8-PhCMVmin; cited from earlier work
# tTAE-KRAB = tested on: tTAE-KRAB; parameters: key to Response to inducer: T (transgene transcription): A, activation; DA, deactivation; DR, derepression; key to Response to inducer: TF (transcription factor): B, binding; D, dissociation; settings: TET-OFFE-ON (NOT IF gate); OtetO7-OETR8-PhCMVmin; cited from earlier work
# E-KRAB = tested on: E-KRAB; parameters: key to Response to inducer: T (transgene transcription): A, activation; DA, deactivation; DR, derepression; key to Response to inducer: TF (transcription factor): B, binding; D, dissociation; settings: E-ON; PETRON8 (PSV40-OETR8); cited from earlier work
# ET (E-VP16) = tested on: ET (E-VP16); parameters: key to Response to inducer: T (transgene transcription): A, activation; DA, deactivation; DR, derepression; key to Response to inducer: TF (transcription factor): B, binding; D, dissociation; settings: E-OFF; PETR (OETR-PhCMVmin); cited from earlier work
# TtgA1 (TtgR-VP16) = TtgA1 (TtgR-VP16) (Pseudomonas putida, UniProt Q9AIU0); parameters: key to Response to inducer: T (transgene transcription): A, activation; DA, deactivation; DR, derepression; key to Response to inducer: TF (transcription factor): B, binding; D, dissociation; settings: PEACE; PTtgR1 (OTtgR-PhCMVmin); cited from earlier work
# TtgA1 (TtgR-VP16), sequence (Q9AIU0 whole entry, added parts left off): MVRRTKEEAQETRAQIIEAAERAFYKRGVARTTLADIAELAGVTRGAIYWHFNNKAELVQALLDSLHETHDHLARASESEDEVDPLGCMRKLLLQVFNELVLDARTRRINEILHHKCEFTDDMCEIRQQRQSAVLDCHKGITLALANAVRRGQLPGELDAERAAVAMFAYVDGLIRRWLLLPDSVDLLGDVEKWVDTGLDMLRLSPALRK
# [1] = tested on: nicotine-inducible transcription factor; settings: U87MG reporter cells co-transduced with constructs 12 and 13 (cell group G); nicotine 10 uM and 1 uM; flow cytometry day 5; FIG. 2 and FIG. 3
# Procedure: U87MG cells transduced with a 4×ZF10-1 BS_minYBTATA:mCherry vector (referred to as “reporter cells”) were plated at 6e5/cells in a 6 well plate on day 0.
# Cannabinoid-inducible transcription factor constructs included a first monomer construct (construct 14) composed of a first anti-CBD VHH (CA-14), a zinc finger protein domain of SEQ ID NO: 1, a nuclear localization signal of SEQ ID NO: 2, a cleavable linker, and a BFP tag, and a second monomer construct (construct 15) composed of a 3×FLAG-tagged nuclear localization signal (NLS) of SEQ ID NO: 2, a VPR transcriptional activation domain, a second anti-CBD VHH that is oligomerizable with the first anti-CBD VHH (DB-21), a cleavable linker, and a GFP tag.
# Day 5, flow cytometry was performed, and the cells were gate on GFP/BFP
# ArgR-VP16 = tested on: ArgR-VP16; parameters: key to Response to inducer: T (transgene transcription): A, activation; DA, deactivation; DR, derepression; key to Response to inducer: TF (transcription factor): B, binding; D, dissociation; settings: ART; PART (OARG-PhCMVmin); cited from earlier work
# p65-TraR = tested on: p65-TraR; parameters: key to Response to inducer: T (transgene transcription): A, activation; DA, deactivation; DR, derepression; key to Response to inducer: TF (transcription factor): B, binding; D, dissociation; settings: O7x(tra box)-PhCMVmin; cited from earlier work
# SCA (ScbR-VP16) = tested on: SCA (ScbR-VP16); parameters: key to Response to inducer: T (transgene transcription): A, activation; DA, deactivation; DR, derepression; key to Response to inducer: TF (transcription factor): B, binding; D, dissociation; settings: QuoRex; PSCA (OscbR-PhCMVmin)PSPA (OpapRI-PhCMVmin); cited from earlier work
# SCS (ScbR-KRAB) = tested on: SCS (ScbR-KRAB); parameters: key to Response to inducer: T (transgene transcription): A, activation; DA, deactivation; DR, derepression; key to Response to inducer: TF (transcription factor): B, binding; D, dissociation; settings: Q-ON; PSCAON8 (PSV40-OscbR8); cited from earlier work
# mUTS (KRAB-HucR) = tested on: mUTS (KRAB-HucR); parameters: key to Response to inducer: T (transgene transcription): A, activation; DA, deactivation; DR, derepression; key to Response to inducer: TF (transcription factor): B, binding; D, dissociation; settings: UREX; PUREX8 (PSV40-OhucO8); cited from earlier work
# REDOX (REX-VP16) = REDOX (REX-VP16) (Streptomyces coelicolor, UniProt Q9WX14); parameters: key to Response to inducer: T (transgene transcription): A, activation; DA, deactivation; DR, derepression; key to Response to inducer: TF (transcription factor): B, binding; D, dissociation; settings: PROP (OROP-PhCMVmin); cited from earlier work
# REDOX (REX-VP16), sequence (Q9WX14 whole entry, added parts left off): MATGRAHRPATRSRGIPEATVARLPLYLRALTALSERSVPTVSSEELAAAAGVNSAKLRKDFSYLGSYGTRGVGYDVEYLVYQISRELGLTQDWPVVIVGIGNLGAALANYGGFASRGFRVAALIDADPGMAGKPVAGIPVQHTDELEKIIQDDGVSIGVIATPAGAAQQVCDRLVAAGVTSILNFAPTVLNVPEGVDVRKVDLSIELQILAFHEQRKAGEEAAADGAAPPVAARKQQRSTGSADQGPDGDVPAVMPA
# NT (HdnoR-VP16) = NT (HdnoR-VP16) (Paenarthrobacter nicotinovorans, UniProt Q8GAF9); parameters: key to Response to inducer: T (transgene transcription): A, activation; DA, deactivation; DR, derepression; key to Response to inducer: TF (transcription factor): B, binding; D, dissociation; settings: NICE-OFF; PNIC (ONIC-PhCMVmin); cited from earlier work
# NT (HdnoR-VP16), sequence (Q8GAF9 whole entry, added parts left off): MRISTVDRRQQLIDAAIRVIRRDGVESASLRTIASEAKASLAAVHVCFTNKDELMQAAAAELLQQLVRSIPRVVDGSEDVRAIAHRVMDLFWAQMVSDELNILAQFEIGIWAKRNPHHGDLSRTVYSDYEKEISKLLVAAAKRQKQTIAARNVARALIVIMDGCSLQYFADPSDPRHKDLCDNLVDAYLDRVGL
# NS (HdnoR-KRAB) = tested on: NS (HdnoR-KRAB); parameters: key to Response to inducer: T (transgene transcription): A, activation; DA, deactivation; DR, derepression; key to Response to inducer: TF (transcription factor): B, binding; D, dissociation; settings: NICE-ON; PNIC (PSV40-ONIC8); cited from earlier work
compound,measurement,setting,value
Pristinamycin I,Response to inducer: T (transgene transcription),tTAPIT3E-KRAB,DR
same,Response to inducer: TF (transcription factor),tTAPIT3E-KRAB,D
same,Response to inducer: T (transgene transcription),PIT (PIP-VP16),DA
same,Response to inducer: TF (transcription factor),PIT (PIP-VP16),D
same,Response to inducer: T (transgene transcription),SCAPIT3,DR
same,Response to inducer: TF (transcription factor),SCAPIT3,D
same,Response to inducer: T (transgene transcription),PIT3 (PIP-KRAB),DR
same,Response to inducer: TF (transcription factor),PIT3 (PIP-KRAB),D
CC(C)c1ccc(C(=O)O)cc1 [Cumate],Response to inducer: T (transgene transcription),cTA (CymR-VP16),DA
same,Response to inducer: TF (transcription factor),cTA (CymR-VP16),D
same,Response to inducer: T (transgene transcription),rcTA (rCymR-VP16),A
same,Response to inducer: TF (transcription factor),rcTA (rCymR-VP16),B
same,Response to inducer: T (transgene transcription),CymR,DR
same,Response to inducer: TF (transcription factor),CymR,D
COc1cc(C(=O)O)ccc1O [Vanillic acid],Response to inducer: T (transgene transcription),VanA1 (VanR-VP16),DA
same,Response to inducer: TF (transcription factor),VanA1 (VanR-VP16),D
same,Response to inducer: T (transgene transcription),VanA4 (VanR-KRAB),DR
same,Response to inducer: TF (transcription factor),VanA4 (VanR-KRAB),D
O=C(O)CCCC[C@@H]1SC[C@@H]2NC(=O)N[C@@H]21 [Biotin],Response to inducer: T (transgene transcription),BIT (BirA-VP16),A
same,Response to inducer: TF (transcription factor),BIT (BirA-VP16),B
CC[C@H]1OC(=O)[C@H](C)[C@@H](O[C@H]2C[C@@](C)(OC)[C@@H](O)[C@H](C)O2)[C@H](C)[C@@H](O[C@@H]2O[C@H](C)C[C@H](N(C)C)[C@H]2O)[C@](C)(O)C[C@@H](C)C(=O)[C@H](C)[C@@H](O)[C@]1(C)O [Erythromycin],Response to inducer: T (transgene transcription),SCAE-KRAB,DR
same,Response to inducer: TF (transcription factor),SCAE-KRAB,D
same,Response to inducer: T (transgene transcription),tTAE-KRAB,DR
same,Response to inducer: TF (transcription factor),tTAE-KRAB,D
same,Response to inducer: T (transgene transcription),tTAPIT3E-KRAB,DR
same,Response to inducer: TF (transcription factor),tTAPIT3E-KRAB,D
same,Response to inducer: T (transgene transcription),E-KRAB,DR
same,Response to inducer: TF (transcription factor),E-KRAB,D
same,Response to inducer: T (transgene transcription),ET (E-VP16),DA
same,Response to inducer: TF (transcription factor),ET (E-VP16),D
O=C(CCc1ccc(O)cc1)c1c(O)cc(O)cc1O [Phloretin],Response to inducer: T (transgene transcription),TtgA1 (TtgR-VP16),DA
same,Response to inducer: TF (transcription factor),TtgA1 (TtgR-VP16),D
CN1CCCC1c1cccnc1 (centres unmarked) [nicotine],reporter (mCherry) expression: percent of mCherry positive cells and mean fluorescent intensity,[1],induced concentration-dependent reporter expression
"N=C(N)NCCC[C@H](N)C(=O)O [Construct 1-Arginine, 1-Arginine]",Response to inducer: T (transgene transcription),ArgR-VP16,A
same,Response to inducer: TF (transcription factor),ArgR-VP16,B
"CCCCCC(=O)CC(=O)N[C@H]1CCOC1=O [Construct 3-Oxo-C8-HSL, 3-Oxo-C8-HSL]",Response to inducer: T (transgene transcription),p65-TraR,A
same,Response to inducer: TF (transcription factor),p65-TraR,B
CC(C)CCCC[C@@H](O)[C@@H]1C(=O)OC[C@H]1CO [SCB1],Response to inducer: T (transgene transcription),SCAE-KRAB,DA
same,Response to inducer: TF (transcription factor),SCAE-KRAB,D
same,Response to inducer: T (transgene transcription),SCA (ScbR-VP16),DA
same,Response to inducer: TF (transcription factor),SCA (ScbR-VP16),D
same,Response to inducer: T (transgene transcription),SCAPIT3,DA
same,Response to inducer: TF (transcription factor),SCAPIT3,D
same,Response to inducer: T (transgene transcription),SCS (ScbR-KRAB),DR
same,Response to inducer: TF (transcription factor),SCS (ScbR-KRAB),D
O=c1[nH]c(=O)c2[nH]c(=O)[nH]c2[nH]1 [Uric acid],Response to inducer: T (transgene transcription),mUTS (KRAB-HucR),DR
same,Response to inducer: TF (transcription factor),mUTS (KRAB-HucR),D
NC(=O)C1=CN([C@@H]2O[C@H](COP(=O)(O)OP(=O)(O)OC[C@H]3O[C@@H](n4cnc5c(N)ncnc54)[C@H](O)[C@@H]3O)[C@@H](O)[C@H]2O)C=CC1 [NADH],Response to inducer: T (transgene transcription),REDOX (REX-VP16),DA
same,Response to inducer: TF (transcription factor),REDOX (REX-VP16),D
CN1CCCC1c1ccc(O)nc1 (centres unmarked) [6-Hydroxy-nicotine],Response to inducer: T (transgene transcription),NT (HdnoR-VP16),DA
same,Response to inducer: TF (transcription factor),NT (HdnoR-VP16),D
same,Response to inducer: T (transgene transcription),NS (HdnoR-KRAB),DR
same,Response to inducer: TF (transcription factor),NS (HdnoR-KRAB),D
